This note sets out measurements from patent US20240343694A1, “PYRIMIDINE DERIVATIVE, METHOD FOR PREPARING SAME, AND PHARMACEUTICAL COMPOSITION FOR PREVENTING OR TREATING CANCER COMPRISING SAME AS ACTIVE INGREDIENT” (KOREA RESERARCH INSTITUTE OF CHEMICAL TECHNOLOGY, priority 2021, published 2024).

SMILES strings stand for the structures.

The target in one test is HER2 A775_G776insYVMA (Homo sapiens (Human), UniProt P04626, INS775YVMA). The test can be described thus: HTRF inhibitory activity against HER2 mutant enzyme. The following applies: recombinant enzyme, 37° C. for 2 hours. The format is biochemical. Summed up:
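Recombinant HER2 A775_G776insYVMA preincubated with compound, then […] and biotinylated peptide ([…]) added; 2 h at 37 °C in Tris-HCl pH 7.5 buffer with MgCl2, DTT. HTRF detection (Eu anti-phosphotyrosine/streptavidin-XL665); IC50 from 7 concentrations.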
On the technique in general: Time-resolved FRET reads energy transfer from a long-lived donor to a nearby acceptor.

Test [1] relates to Ba/F3 EGFR D770_N771insSVD. Nature of the test: Growth inhibition of Ba/F3 EGFR mutant cells (CellTiter-Glo). The format is cell-based. As to conditions: Ba/F3 EGFR-D770-N771ins_SVD, 72 hours. The protocol: (§1) The activity of the compounds of the present invention against Ba/F3 EGFR V769_D770insASV and Ba/F3 EGFR D770_N771insSVD mutant cell lines was measured using the CellTiter-Glo system purchased from Promega as follows. CellTiter-Glo assay is a method to measure cell viability by monitoring ATP present in cells. Ba/F3 EGFR V769_D770insASV and Ba/F3 EGFR D770_N771insSVD mutant cell lines were purchased from Crown Biosciences. Ba/F3 EGFR V769_D770insASV and Ba/F3 EGFR D770_N771insSVD mutant cell lines were cultured in RPMI containing 10% FBS and 1% penicillin-streptomycin with 1 μg/mL of puromycin in a 5% CO2 incubator at 37° C.
(§2) The analysis of the ability of the compounds to inhibit the growth of EGFR mutant cells was performed according to the following method. 1,000 cells/100 μL were seeded in a 96-well cell culture plate, and 24 hours thereafter, the compounds represented by Formula 1 were treated with 0 μM, 0.01 μM, 0.03 μM, 0.1 μM, 0.3 μM, 1 μM, 3 μM, and 10 μM. After incubating for 72 hours, the plate treated with the compounds were left at room temperature for 30 minutes, 100 μL of a reagent was further added thereto, and then shaken at room temperature for 10 minutes. Finally, using equipment, the ratio of […] was measured to confirm the cell growth inhibition ability of the compounds. The measured values at 8 compound concentrations were analyzed using the Prism program (version 5.01, Graphpad Software, Inc.), and the IC50 (μM) values, which are measures of the compounds' inhibitory ability, were calculated.
(In ATP-based viability assays light output follows the ATP content of the culture.)

For test [2], the system named is Ba/F3 EGFR V769_D770insASV. The description is as above. The class given is cell-based. As to conditions: 72 hours. The protocol: as §1, §2
For test [3], the system named is Ba/F3 HER2 A775_G776insYVMA. Nature of the test: Growth inhibition of Ba/F3 HER2 mutant cells (CellTiter-Glo). The format is cell-based. As to conditions: Mus musculus, BaF3, 72 hours. The protocol: as §1, with “HER2 A775_G776insYVMA” for “EGFR V769_D770insASV”, “HER2 G776delinsVC” for “EGFR D770_N771insSVD”, “a” for “a 5%”
as §2, with “HER2” for “EGFR”, “reacting” for “incubating”, “was” for “was further”

The target in a further test is EGFR del19 (Homo sapiens (Human), UniProt P00533, DEL746-750). The test can be described thus: HTRF inhibitory activity against EGFR mutant enzyme (EGFR del19). As to conditions: recombinant enzyme, 37° C. for 2 hours. The class given is biochemical. Summed up:
(§3)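 Recombinant EGFR del19 or A763_Y764insFHEA was premixed with compound in 50 mM Tris pH 7.5 with 7.5 mM MgCl2 and 1 mM DTT. ATP (50 mM as printed) and biotin-peptide (0.5 mM) were added and reacted 2 h at 37 °C. The HTRF 665/615 read used streptavidin-XL665 and Eu anti-phosphotyrosine. IC50 was fitted from 7 concentrations.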

The next test deals with EGFR A763_Y764insFHEA (Homo sapiens (Human), UniProt P00533, INS763FHEA). The test can be described thus: HTRF inhibitory activity against EGFR mutant enzyme (EGFR A763_Y764insFHEA). The format is biochemical. The following applies: recombinant enzyme, 37° C. for 2 hours. The gist of the method: as §3
EGFR A763_Y764insFHEA, sequence (P00533 other isoform, or with tags, fused parts or gaps del 1-694/ins FHEA behind 763 limits assumed): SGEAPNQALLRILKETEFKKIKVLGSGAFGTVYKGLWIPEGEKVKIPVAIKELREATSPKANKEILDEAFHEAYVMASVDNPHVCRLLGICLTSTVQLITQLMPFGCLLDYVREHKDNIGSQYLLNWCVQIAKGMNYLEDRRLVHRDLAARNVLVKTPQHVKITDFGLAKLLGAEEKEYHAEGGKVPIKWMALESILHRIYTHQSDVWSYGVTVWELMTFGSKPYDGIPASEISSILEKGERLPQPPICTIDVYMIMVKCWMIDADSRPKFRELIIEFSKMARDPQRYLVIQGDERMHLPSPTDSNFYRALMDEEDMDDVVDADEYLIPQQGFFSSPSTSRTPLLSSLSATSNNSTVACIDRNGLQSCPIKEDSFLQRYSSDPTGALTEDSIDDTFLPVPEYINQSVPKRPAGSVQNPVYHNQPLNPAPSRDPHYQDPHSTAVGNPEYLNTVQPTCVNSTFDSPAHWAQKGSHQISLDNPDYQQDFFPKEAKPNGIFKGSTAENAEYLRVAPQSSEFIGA

HER2 A775_G776insYVMA, sequence (P04626 other isoform, or with tags, fused parts or gaps del 1-675/ins YVMA behind 775 limits assumed): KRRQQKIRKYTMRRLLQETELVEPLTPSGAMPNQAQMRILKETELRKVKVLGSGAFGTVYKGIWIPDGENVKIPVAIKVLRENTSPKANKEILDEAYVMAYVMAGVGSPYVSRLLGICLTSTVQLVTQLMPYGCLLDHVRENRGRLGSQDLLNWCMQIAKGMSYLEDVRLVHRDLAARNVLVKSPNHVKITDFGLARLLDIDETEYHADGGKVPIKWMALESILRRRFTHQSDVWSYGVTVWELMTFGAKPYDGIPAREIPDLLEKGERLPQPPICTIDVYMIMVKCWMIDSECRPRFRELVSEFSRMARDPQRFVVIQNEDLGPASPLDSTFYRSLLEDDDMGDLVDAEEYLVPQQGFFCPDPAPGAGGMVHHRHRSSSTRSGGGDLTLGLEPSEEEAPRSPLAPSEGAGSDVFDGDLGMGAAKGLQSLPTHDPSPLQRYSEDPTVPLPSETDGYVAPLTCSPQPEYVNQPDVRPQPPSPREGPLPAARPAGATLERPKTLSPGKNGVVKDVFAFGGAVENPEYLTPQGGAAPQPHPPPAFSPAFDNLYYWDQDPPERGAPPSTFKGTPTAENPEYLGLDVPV
EGFR del19, sequence (P00533 other isoform, or with tags, fused parts or gaps del 1-668/del 746-750 limits assumed): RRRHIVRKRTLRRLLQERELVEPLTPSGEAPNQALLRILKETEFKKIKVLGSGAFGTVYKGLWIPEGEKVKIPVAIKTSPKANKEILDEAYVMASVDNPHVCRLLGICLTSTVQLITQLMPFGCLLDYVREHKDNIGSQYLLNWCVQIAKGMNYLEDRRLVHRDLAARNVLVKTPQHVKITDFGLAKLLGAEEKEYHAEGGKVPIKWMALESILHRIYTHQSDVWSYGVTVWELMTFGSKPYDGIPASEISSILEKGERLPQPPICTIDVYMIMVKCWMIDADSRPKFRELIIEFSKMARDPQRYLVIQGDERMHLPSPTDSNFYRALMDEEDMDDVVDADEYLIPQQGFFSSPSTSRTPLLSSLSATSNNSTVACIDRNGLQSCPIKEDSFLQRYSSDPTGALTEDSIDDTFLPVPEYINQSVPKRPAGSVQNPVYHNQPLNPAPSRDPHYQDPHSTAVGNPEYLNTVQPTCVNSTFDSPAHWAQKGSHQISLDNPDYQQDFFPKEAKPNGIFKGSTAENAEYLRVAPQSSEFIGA

For `C=CC(=O)Nc1cc(Nc2ncc(Cl)c(Nc3cccc4c3N(S(C)(=O)=O)CCC4)n2)c(OC)cc1N(C)CCN1CCOCC1` [Example 53, N-(5-((5-chloro-4-((1-(methylsulfonyl)-1,2,3,4-tetrahydroquinolin-8-yl)amino)pyrimidin-2-yl)amino)-4-methoxy-2-(methyl(2-morpholinoethyl)amino)phenyl)acrylamide], the IC50 – broadly, the concentration at which inhibition is half-maximal – is 10 nM at HER2 A775_G776insYVMA, 10 to 30 nM in test [1], 10 to 30 nM in test [2] and 10 to 30 nM in test [3].
Regarding `C=CC(=O)Nc1cc(Nc2ncc(C(=O)OC(C)C)c(Nc3cccc4c3N(S(C)(=O)=O)CC4)n2)c(OC)cc1N(C)CCN(C)C` [Example 61, isopropyl 2-((5-acrylamido-4-((2-(dimethylamino)ethyl)(methyl)amino)-2-methoxyphenyl)amino)-4-((1-(methylsulfonyl)indolin-7-yl)amino)pyrimidin-5-carboxylate], the IC50 is < 1 nM at EGFR del19; < 1 nM on EGFR A763_Y764insFHEA; 1 nM at HER2 A775_G776insYVMA; 10 to 30 nM in test [1]; 10 to 30 nM in test [2]; 10 to 30 nM in test [3].
Consider `C=CC(=O)Nc1cc(Nc2ncc(C#N)c(Nc3cccc4c3N(S(C)(=O)=O)CC4)n2)c(OC)cc1N(C)CCN(C)C` [Example 62, N-(5-((5-cyano-4-((1-(methylsulfonyl)indolin-7-yl)amino)pyrimidin-2-yl)amino)-2-((2-(dimethylamino)ethyl)(methyl)amino)-4-methoxyphenyl)acrylamide], for which the 50% inhibitory concentration (IC50) at HER2 A775_G776insYVMA was 3 nM; in test [1], 10 to 30 nM; in test [2], 10 to 30 nM; in test [3] it was 10 to 30 nM.
Turning to `C=CC(=O)Nc1cc(Nc2ncc(Cl)c(Nc3cccc4c3N(S(C)(=O)=O)CC4)n2)c(OC)cc1OCCN(C)C` [Example 63, N-(5-((5-chloro-4-((1-(methylsulfonyl)indolin-7-yl)amino)pyrimidin-2-yl)amino)-2-(2-(dimethylamino)ethoxy)-4-methoxyphenyl)acrylamide], the IC50 on HER2 A775_G776insYVMA was < 1 nM; in test [1] it was 10 to 30 nM; in test [2], 10 to 30 nM; in test [3] it was 10 to 30 nM.
Consider `C=CC(=O)Nc1cc(Nc2ncc(Cl)c(Nc3cccc4c3N(S(C)(=O)=O)CC4)n2)c(OC)cc1N(C)CCN1CCOCC1` [Example 64, N-(5-((5-chloro-4-((1-(methylsulfonyl)indolin-7-yl)amino)pyrimidin-2-yl)amino)-4-methoxy-2-(methyl(2-morpholinoethyl)amino)phenyl)acrylamide], for which the IC50 at EGFR del19 is < 1 nM; on EGFR A763_Y764insFHEA it was < 1 nM; at HER2 A775_G776insYVMA it was 3 nM; in test [1], 30 to 50 nM; in test [2], 30 to 50 nM; in test [3] it was 10 to 30 nM.
On to `C=CC(=O)Nc1cc(Nc2ncc(C(F)(F)F)c(Nc3cccc4c3N(S(C)(=O)=O)CC4)n2)c(OC)cc1N(C)CCN(C)C` [Example 65, N-(2-((2-(dimethylamino)ethyl)(methyl)amino)-4-methoxy-5-((4-((1-(methylsulfonyl)indolin-7-yl)amino)-5-(trifluoromethyl)pyrimidin-2-yl)amino)phenyl)acrylamide], for which the IC50 at EGFR del19 is < 1 nM; at EGFR A763_Y764insFHEA, < 1 nM; at HER2 A775_G776insYVMA, 15 nM; in test [1] it was 10 to 30 nM; in test [2], 10 to 30 nM; in test [3], 10 to 30 nM.
For the compound `C=C(F)C(=O)Nc1cc(Nc2ncc(Cl)c(Nc3cccc4c3N(S(C)(=O)=O)CC4)n2)c(OC)cc1N(C)CCN(C)C` [Example 66, N-(5-((5-chloro-4-((1-(methylsulfonyl)indolin-7-yl)amino)pyrimidin-2-yl)amino)-2-((2-(dimethylamino)ethyl)(methyl)amino)-4-methoxyphenyl)-2-fluoroacrylamide], the IC50 on EGFR del19 is < 1 nM; at EGFR A763_Y764insFHEA, < 1 nM; on HER2 A775_G776insYVMA it was 5 nM; in test [1], 10 to 30 nM; in test [2], 10 to 30 nM; in test [3] it was 10 to 30 nM.
As for `C=CC(=O)Nc1cc(Nc2ncc(Cl)c(Nc3cccc4c3N(S(C)(=O)=O)CC4)n2)c(OC)cc1N(C)CCN1CCCC1` [Example 74, N-(5-((5-chloro-4-((1-(methylsulfonyl)indolin-7-yl)amino)pyrimidin-2-yl)amino)-4-methoxy-2-(methyl(2-(pyrrolidin-1-yl)ethyl)amino)phenyl)acrylamide], the IC50 on EGFR del19 is < 1 nM; at EGFR A763_Y764insFHEA, < 1 nM; on HER2 A775_G776insYVMA it was < 1 nM; in test [1] it was < 10 nM; in test [2], < 10 nM.
For the compound `C=CC(=O)Nc1cc(Nc2ncc(Cl)c(Nc3ccc(C)cc3N(C)S(C)(=O)=O)n2)c(OC)cc1N(C)CCN1CCCC1` [Example 76, N-(5-((5-chloro-4-((4-methyl-2-(N-methylmethylsulfonamido)phenyl)amino)pyrimidin-2-yl)amino)-4-methoxy-2-(methyl(2-(pyrrolidin-1-yl)ethyl)amino)phenyl)acrylamide], the IC50 is < 1 nM on EGFR del19; < 1 nM on EGFR A763_Y764insFHEA; 1 nM on HER2 A775_G776insYVMA; < 10 nM in test [1]; < 10 nM in test [2].
In the case of `C=CC(=O)Nc1cc(Nc2ncc(Cl)c(Nc3cccc4c3N(S(C)(=O)=O)CC4)n2)c(OC)cc1OCCN1CCCC1` [Example 79, N-(5-((5-chloro-4-((1-(methylsulfonyl)indolin-7-yl)amino)pyrimidin-2-yl)amino)-4-methoxy-2-(2-(pyrrolidin-1-yl)ethoxy)phenyl)acrylamide], the IC50 on EGFR del19 was < 1 nM; on EGFR A763_Y764insFHEA, < 1 nM; at HER2 A775_G776insYVMA it was 1 nM; in test [1], < 10 nM; in test [2], 10 to 30 nM.
For `C=CC(=O)Nc1cc(Nc2ncc(Cl)c(Nc3cccc4c3N(S(C)(=O)=O)CC4)n2)c(OC)cc1N(C)CCN1CCC1` [Example 80, N-(2-((2-(azetidin-1-yl)ethyl)(methyl)amino)-5-((5-chloro-4-((1-(methylsulfonyl)indolin-7-yl)amino)pyrimidin-2-yl)amino)-4-methoxyphenyl)acrylamide], the IC50 at EGFR del19 was < 1 nM; at EGFR A763_Y764insFHEA, < 1 nM; at HER2 A775_G776insYVMA, 1 nM; in test [1], < 10 nM; in test [2], < 10 nM.
In the case of `C=CC(=O)Nc1cc(Nc2ncc(Cl)c(Nc3ccc(C)cc3N(C)S(C)(=O)=O)n2)c(OC)cc1N(C)CCN1CCC1` [Example 82, N-(2-((2-(azetidin-1-yl)ethyl)(methyl)amino)-5-((5-chloro-4-((4-methyl-2-(N-methylmethylsulfonamido)phenyl)amino)pyrimidin-2-yl)amino)-4-methoxyphenyl)acrylamide], the IC50 at EGFR del19 was < 1 nM; at EGFR A763_Y764insFHEA it was < 1 nM; on HER2 A775_G776insYVMA, 2 nM; in test [1], < 10 nM; in test [2] it was < 10 nM.
